Consider seven compounds from publication PMC10820479, “An Improved In Vitro Blood-Brain Barrier Model for the Evaluation of Drug Permeability Using Transwell with Shear Stress” (Pharmaceutics, 2023).

The nature of one data set: in vitro. The conditions noted are these: human. The method, then:
(§1) The culture inserts (Costar®, Washington, DC, USA, 6.5 mm diameter) of polycarbonate (PC) and polyester (PET) membrane were procured from Corning Inc. (Corning, NY, USA). […] After washing twice with PBS, the cells were seeded at a density of 1 × 10^5 hCMEC/D3 cells/well in the apical chamber and 3 × 10^4 U87MG cells/well on the basolateral side of the insert. The cultivation method was modified from that described in the literature. Briefly, the insert was inverted, and U87MG cells were initially seeded. The insert was flipped 3–4 h after seeding the U87MG cells. Subsequently, hCMEC/D3 cells were seeded 1 day later.
(§2) To prevent nonspecific binding, all compounds were pre-incubated for 30 min prior to the permeability study. The samples were collected at 0 min from the donor and at 30, 60, and 90 min from the acceptor and immediately replaced with a new transport buffer. Incubation was carried out in a humidified 5% CO2 environment at 37 °C with shaking at 100 rpm.
(§3) After culturing the cells in culture inserts, as described in Section 2.3, they were transferred to the AS prepared on day 3, and cultivation was carried out with orbital shaking at 150 rpm until day 17 (Figure 1b). The cultivated AS BBB model was employed to investigate the effects of the AS size, as well as the influence of FBS and ITS.
(§4) Chromatographic separations were performed on Agilent Poroshell 120 EC-C18 (3.0 × 50 mm, 2.7 µm; Agilent Technologies, Inc., Santa Clara, CA, USA) and YMC triart C18 (2.0 × 50 mm, 3 µm; YMC Co., Ltd., Kyoto, Japan) columns using 5 mM ammonium formate in water (pH 4) and methanol.
(§5) The optimized AS BBB model was evaluated as follows.

The conditions of data set [1]: rat; unbound plasma-CSF partition coefficient; cited from earlier work.
Another data set relates to P-gp. As to the kind of experiment: Efflux transporter inhibition assay, P-gp, AS BBB model. The format is in vitro ADME. The following applies: human, optimized AS BBB model. The method, then: A modified method from a previously published paper was used for the inhibition assay. […] The bidirectional permeability of substrates was evaluated by measuring changes in Papp and the efflux ratio for both the inhibitor- and vehicle-treated groups. The concentration of dantrolene was determined using liquid chromatography with tandem mass spectrometry (LC-MS/MS).

The subject of data set [2] is in vitro AS BBB model (hCMEC/D3 co-cultured with U87MG). As to the kind of experiment: Permeability test in the optimized annular shaking dish (AS) BBB model. The following applies: optimized AS BBB model. The method, then:
as §1, §2, §3, §4, §5

For a further data set, the system named is P-glycoprotein (P-gp). The data set can be described thus: Rhodamine 123 efflux (bidirectional permeability, P-gp activity). The conditions noted are these: for efflux ratio: 10 μM; for efflux ratio at 90 min, 10 μM: human, not told.
In data set [3] the test system is hCMEC/D3 cell layer on transwell inserts. The data set can be described thus: Lucifer yellow (LY) diffusion, cell layer integrity. The conditions noted are these: AS BBB model (discussion).
The conditions of data set [4]: monkey; unbound plasma-CSF partition coefficient; cited from earlier work.

Structures can show the parent of a compound that is named as a salt. Where two headings read alike, the source gives them in different places.

Description for P-glycoprotein (P-gp): Bidirectional permeability tests were performed at time points of 0, 30, 60, and 90 min with shaking at 100 rpm. Each sample was measured at 480 nm/530 nm (excitation/emission wavelengths) using the VICTOR® Nivo multimode plate reader. The apparent permeability coefficient (Papp) was determined using Equation (2):Papp (cm/s) = dQ/dt × 1/(A × C0)(2) where: • A is the surface area of the insert filter membrane (cm^2) • C0 is the initial concentration in the donor solution (μM) • dQ/dt is the amount of the drug transported within a given time period (pmol/s)

Broadly, the Papp is the rate of passage across a membrane or cell layer, normalised by area and donor concentration. A higher Papp goes with ready permeation. The compound `Cc1ncc2n1-c1ccc(Cl)cc1C(c1ccccc1F)=NC2` [Midazolam] yielded an apparent permeability coefficient (Papp) in the data set “in vitro” of 41.5 ± 2.8 ×10⁻⁶ cm/s. The “Kp,uu,CSF” value in data set [1] is recorded as 1.35 (rat) ^2.

As for `CC(C)NCC(O)COc1cccc2ccccc12` (stereo not shown) [Propranolol, propranolol HCl], the Papp at 90 min, 20 μM in the data set “in vitro” came to 24.6 ± 4.5 ×10⁻⁶ cm/s.

`O=C1NC(=O)C(c2ccccc2)(c2ccccc2)N1` [Phenytoin, phenytoin sodium] had a Papp at 90 min, 20 μM in “in vitro” of 21.8 ± 1.2 ×10⁻⁶ cm/s.

In general, efflux ratio refers to a quotient of directional permeabilities that is used to spot active efflux. For the compound `COC(=O)c1ccccc1-c1c2ccc(=N)cc-2oc2cc(N)ccc12` [Rhodamine123, rhodamine 123], the efflux ratio at 10 μM in the data set on P-gp (with cyclosporin A 10 μM, with P-gp inhibitor cyclosporin A 10 μM) came out at 1.6 ± 0.13; in the data set on P-gp (without inhibitor, 10 μM), 4.2 ± 0.15. Further, the Papp at 90 min, 20 μM in “in vitro” came out at 0.67 ± 0.14 ×10⁻⁶ cm/s. Also, the “permeability (in words)” value in data set [2] is recorded as “low”. The efflux ratio entry with P-glycoprotein (P-gp) (15 cm AS group) is “exceeding two”; in the data set with P-glycoprotein (P-gp) (15 cm AS, 5% FBS + ITS) it was 4.04 ± 0.04. For the same compound, the efflux ratio at 90 min, 10 μM in the data set with P-glycoprotein (P-gp) (15 cm AS, 2% FBS + ITS) was 6.73 ± 0.94; in the data set with P-glycoprotein (P-gp) (15 cm AS, 5% FBS) it was 2.4 ± 0.05; in the data set with P-glycoprotein (P-gp) (15 cm AS, 5% FBS + ITS) it was 4 ± 0.04.

With lucifer yellow CH dipotassium salt [LY], in data set [3], the “transport of LY through the paracellular pathway” value is on record as “less than 1%”.

Consider `CCN1CCCC1CNC(=O)c1cc(S(N)(=O)=O)ccc1OC` (stereo not shown) [Sulpiride, sulpiride], for which the Papp at 90 min, 20 μM in “in vitro” was determined as 10.2 ± 0.82 ×10⁻⁶ cm/s. The “Kp,uu,CSF” value in data set [1] is reported as 0.049 (rat) ^2.

In turn, `NC(=O)N1c2ccccc2C=Cc2ccccc21` [Carbamazepine, carbamazepine] showed a Papp at 90 min, 20 μM in “in vitro” of 29 ± 4.4 ×10⁻⁶ cm/s. Also, the “permeability (in words)” value in data set [2] was “high permeability”. For the same compound, in data set [4], the “Kp,uu,CSF” value is 0.979 (monkey) ^3.
